Usually melting point stands for the temperature, or range, at which the solid turns liquid. By IC50 is commonly meant the concentration at which inhibition is half-maximal.

Test system in the first series: not given
Test: not given
Conditions: not given
Compound `O=C(Nc1ccc(-n2nc(C(F)(F)F)cc2C(F)(F)F)cc1)c1ccccc1` [Example 538] returned a melting point of 243 to 245 °C.

In turn, `CC(=O)Nc1ccc(-n2nc(C(F)(F)F)cc2C(F)(F)F)cc1` [Example 547] yielded a melting point of 175 to 176 °C.

As for `FC(F)(F)c1cc(C(F)(F)F)n(-c2ccc(NCc3ccc(Cl)cc3)cc2)n1` [Example 548], the melting point was 89 to 90 °C.

On to `CCCCCC(=O)Nc1ccc(-n2nc(C(F)(F)F)cc2C(F)(F)F)cc1` [Example 584], for which the melting point fell in the range of 107 to 109 °C.

The compound `CCNc1ccc(-n2nc(C(F)(F)F)cc2C(F)(F)F)cc1` [Example 613] had a melting point of 54 °C.

`FC(F)(F)c1cc(C(F)(F)F)n(-c2ccc(Nc3nc4ccccc4[nH]3)cc2)n1` [Example 644]: the melting point lay in the range of 220 to 222 °C.

In the case of `FC(F)(F)c1cc(C(F)(F)F)n(-c2ccc(Nc3nccc4ccccc34)cc2)n1` [Example 648], the melting point lay in the range of 205 to 220 °C.

`FC(F)(F)c1cc(Cl)n(-c2ccc(Nc3nccc4ccccc34)cc2)n1` [Example 683] showed a melting point of 244 to 254 °C.

`O=C(Nc1ccc(-n2nc(C(F)(F)F)cc2C(F)(F)F)cc1)C1CCCNC1` (stereo not drawn) [Example 688] had a melting point of 231 to 233 °C.

As for `O=C(Nc1ccc(-n2nc(C(F)(F)F)cc2C(F)(F)F)cc1)c1cnccn1` [Example 698], the melting point was 188 to 189 °C.

`O=C(Nc1ccc(-n2nc(C(F)(F)F)cc2C(F)(F)F)cc1)c1ccnc2ccccc12` [Example 711]: the melting point is 204 to 205 °C.

`O=C(Nc1ccc(-n2nc(C(F)(F)F)cc2C(F)(F)F)cc1)c1cnc2ccccc2n1` [Example 712] displayed a melting point of 196 °C.

As for `O=C(Nc1ccc(-n2nc(C(F)(F)F)cc2C(F)(F)F)cc1)N1CCOCC1` [Example 726], the melting point fell in the range of 185 to 186 °C.

Turning to `Cc1cc(C(F)(F)F)nn1-c1ccc(NC(=O)C2CCCC2)cc1` [Example 780], the melting point lay within 176 to 178 °C.

`N#Cc1ccc(Nc2ccc(-n3nc(C(F)(F)F)cc3C(F)(F)F)cc2)cc1` [Example 864] displayed a melting point of 247 °C.

With `FC(F)(F)c1cc(C(F)(F)F)n(-c2ccc(Nc3ccncn3)cc2)n1` [Example 886], the melting point lay within 218 to 219 °C.

For the compound `CSc1cc(-c2ccco2)nn1-c1ccc(NC(=O)c2ccc(Cl)cc2)cc1` [Example 1077], the melting point is 176 to 178 °C.

As for `C[S+]([O-])c1cc(-c2ccco2)nn1-c1ccc(NC(=O)c2ccc(Cl)cc2)cc1` (stereo not drawn) [Example 1101], the melting point amounted to 110 °C.

Turning to `CN(C)Cc1cc(C(F)(F)F)n(-c2ccc(NC(=O)c3ccc(Cl)cc3)cc2)n1` [Example 1128], the melting point was in the range of 177 to 178 °C.

`CCc1cc(C(C)C)nn1-c1ccc(Nc2ncccc2C#N)cc1` [Example 1160]: the melting point lay within 123 to 124 °C.

For the compound `CCc1cc(C(C)C)nn1-c1ccc(NC(=O)c2c(C)noc2C)cc1` [Example 1200], the melting point lay in the range of 173 to 175 °C.

`CCc1cc(C(C)C)nn1-c1ccc(NCc2c(C)noc2C)cc1` [Example 1201] yielded a melting point of 87 to 88 °C.

`CCc1cc(C(F)(F)F)nn1-c1ccc(NC(=O)c2c(C)ncn2C)cc1` [Example 1207] returned a melting point of 179 to 182 °C.

In turn, `CCc1cc(C(F)(F)F)nn1-c1ccc(NCc2sccc2C)cc1` [Example 1247] displayed a melting point of 93 to 95 °C.

In the case of `CCc1cc(C(F)(F)F)nn1-c1ccc(NCc2ccc(C)s2)cc1` [Example 1248], the melting point is 87 to 89 °C.

Consider `CCc1cc(C(C)C)nn1-c1ccc(NC(=O)c2cnccn2)cc1` [Example 1312], for which the melting point fell in the range of 169 to 171 °C.

The next series concerns IL-2 promoter/enhancer. Description: IL-2 promoter assay (luciferase reporter in Jurkat J.1F/C6 cells). The series is classed as cell-based. As to conditions: Homo sapiens; J.1F/C6 Jurkat cell line, IL-2 promoter luciferase reporter; read-out: IC50, inhibition of luciferase activity induced by ionomycin and PMA. An excerpt:
The IL-2 promoter assay measures transcriptional activation of a luciferase reporter gene which has been placed under control of the IL-2 promoter/enhancer. All the known regulatory features of the IL2gene are contained within a 300 bp sequence immediately upstream of the open reading frame. The region −328 to +35 relative to the transcription start site of the IL-2 gene is obtained by RT-PCR of human genomic DNA and is subcloned into the promoterless luciferase reporter vector pGL2-Basic (Promega). The resulting construct, pIL2P-luc, and a vector containing a neomycin resistance gene, pcDNA/Neo (Invitrogen), are linearized and stably transfected into Jurkat cells (a human T cell line) by electroporation. […] For screening compounds, the cells are pelleted by centrifugation, washed once with PBS, resuspended in RPMI (phenol red-free) containing 5% FBS, and dispensed into 96-well, white microtiter plates (Packard) at 50,000 cells/well. The cells are pre-incubated with compounds (1 μg/ml) for 15 min prior to addition of ionomycin (1 μg/ml) and PMA (10 ng/ml) in a final volume of 100 μl. Following a 5 hr incubation at 37° C. in a humidified incubator, 100 μl of Luc-Lite lysis buffer/luciferase assay buffer (Promega) is added and luminescence measured using a Packard TopCount scintillation counter/luminometer.
With `C=CC[C@@H]1/C=C(\C)C[C@H](C)C[C@H](OC)[C@H]2O[C@@](O)(C(=O)C(=O)N3CCCC[C@H]3C(=O)O[C@H](/C(C)=C/[C@@H]3CC[C@@H](O)[C@H](OC)C3)[C@H](C)[C@@H](O)CC1=O)[C@H](C)C[C@@H]2OC` [FK506], the IC50 was 300 pM.

The values above are taken from patent US6506747B1, “Substituted 1-(4-aminophenyl)pyrazoles and their use as anti-inflammatory agents” (Boehringer Ingelheim Pharmaceuticals, Inc., priority 1998, dated 2003).
